Here are results for two compounds from US8313766B2, “Oral antidepressant formulation with reduced excipient load” (priority 2010, dated 2012).

Usually solubility stands for how much of the substance goes into solution per volume. The Tmax is the time from dosing to the highest level.

The nature of series [1]: CX-157 solubility in candidate solvents, test tube method. It is filed as physicochemical. Particulars: organic solvent or mixture, thermodynamic from solid, CX-157 Form A. As to the method: Ethanol, acetone and methylene chloride were selected and tested as candidate solvents. CX-157 solubility in the solvent was performed using a test tube method. A specific amount of CX-157 (Form A: disclosed in U.S. Pat. Pub. No. 2008/0009542 herein incorporated by reference in it entirety) was added into 1 mL test solvent and the sample was agitated vigorously by a Beadbeater (BB). If CX-157 was completely soluble in 1 mL of test solvent, additional CX-157 was added until excess solid was present. The solubility (mg/mL) of CX-157 was calculated by the amount (mass) of CX-157 added to the test solvent (1 mL). Acetone had the highest solubility of the solvents tested with a solubility of from about 60 mg/mL to about 80 mg/mL at room temperature.

A short description of series [2]: Solubility of CX-157 in water (descriptive statement). The class given is physicochemical.
For series [3] the following is noted: human plasma, oral dose of 200 mg in a capsule with food; cited from earlier work.

Converted amounts (≈) assume the structure as drawn.

For `O=S1(=O)c2ccc(F)cc2Oc2cc(OCC(F)(F)F)ccc21` [CX-157, 3-fluoro-7-(2,2,2-trifluoroethoxy)phenoxathiin 10,10-dioxide], the solubility in series [1] (solvent acetone, at room temperature) was 60 to 80 mg/mL (≈ 172 to 230 mM); in series [1] (solvent ethanol, at 60° C.) it was less than 10 mg/mL; in series [1] (solvent methylene chloride, at room temperature), less than 20 mg/mL. In addition, the solubility in water result in series [2] is recorded as “only sparing solubility”.
Regarding `NCCc1ccc(O)cc1` [tyramine], in series [3], the time of peak concentration (Tmax) is not above 1.25 h and the “time after dosing at which non-detectable levels observed” value is 3 to 4 h.
